Target: T1, Sm2OGD3 (Salvia miltiorrhiza, UniProt A0A8K1XH31)
T1 construct: gene TIIAS; full-length ORF (1119 nt, 373 aa printed) in pET-30a, E. coli BL21(DE3), crude extract
Assay: UPLC / LC-MS product assay, crude recombinant E. coli extract, initial rates
Assay type: biochemical
Conditions: 2-oxoglutarate, ferrous sulfate, L-ascorbate; pH 8.0, 30 °C

T1 sequence (A0A8K1XH31 entry or part of it): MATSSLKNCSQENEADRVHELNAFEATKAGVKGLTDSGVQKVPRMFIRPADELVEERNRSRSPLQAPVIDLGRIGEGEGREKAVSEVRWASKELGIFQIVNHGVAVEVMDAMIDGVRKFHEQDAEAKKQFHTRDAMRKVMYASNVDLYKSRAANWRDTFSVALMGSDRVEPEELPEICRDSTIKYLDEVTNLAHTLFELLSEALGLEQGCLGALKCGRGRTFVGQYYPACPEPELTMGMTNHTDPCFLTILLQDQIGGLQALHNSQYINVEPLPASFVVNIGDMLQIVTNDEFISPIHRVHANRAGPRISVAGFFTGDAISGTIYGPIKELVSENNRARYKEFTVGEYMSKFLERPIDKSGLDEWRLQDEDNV

Km: 20.9 µM
Compound: CC1=CCCc2c1ccc1c2C(=O)C(=O)C2=C1OCC2C (stereo not shown) [THT, 1,2,15,16-tetrahydrotanshinone I]
